{"source": "paper PMC5036617", "about": "(Toxicological Sciences, 2016)", "key": {"[1]": {"details": "ref Chu et al., 1998; Wysowski and Fourcroy, 1996; cited from earlier work"}, "[2]": {"system": "HepG2 cells", "test": "Mitochondrial stress test, OCR analysis (Seahorse XFe96)", "type": "cell-based", "details": "for basal respiration / maximal respiration: glucose medium, 7.8–500 µM; for basal respiration / maximal respiration / ATP-linked OCR as a percentage of maximal respiration / proton leak as a percentage of maximal respiration / spare respiratory capacity as a percentage of maximal respiration: vs vehicle control", "description": "HepG2 cells were collected by trypsinization and seeded on a collagen-coated XF 96-well cell culture microplate (25 000 cells/100 µl medium/well) and incubated overnight in glucose medium (37 °C, 5% CO2). All assays used ≤ 0.5% DMSO as a vehicle control. Cells were incubated for 1 h (37°C, 0% CO2) before culture medium was replaced by 175 µl of unbuffered Seahorse XF Base medium supplemented with glucose (25 mM), L-glutamine (2 mM), sodium pyruvate (1 mM), pre-warmed to 37 °C (pH 7.4). Prior to measurement of OCR, the Seahorse XFe96 instrument gently mixed the assay medium in each well for 10 min to enable the oxygen partial pressure to reach equilibrium. […] There were 9 OCR measurement cycles following compound injection and each measurement cycle consisted of a 3 min mix and 3 min measure. […] After stress test compound injections there were 3 measurement cycles before the injection of the next stress test compound. This enabled the calculation of basal respiration (OCR prior to oligomycin injection—non-mitochondrial OCR), proton leak (OCR after oligomycin injection—non-mitochondrial OCR), ATP-linked OCR (basal respiration—proton leak—non-mitochondrial OCR), maximal respiration (first injection after FCCP injection—non-mitochondrial OCR) and spare respiratory capacity (maximal respiration—basal respiration) (Figure 2).  FIG. 2 Representative control mitochondrial stress test trace. Mitochondrial stress test assays consisted of a series of compound injections into the cell culture microplate. […] Remaining injections consisted of oligomycin (ATP synthase inhibitor), FCCP (OXPHOS uncoupler), and rotenone/antimycin A (complex I and III inhibitors, respectively) with each followed by 3 measurement cycles. This series of manipulations enabled the calculation of parameters: basal, ATP-linked, maximum, and non-mitochondrial OCR, as well as proton leak. Each measurement cycle was a total of 6 min. Following completion of OCR assays, medium was removed from all wells and 20 µl of somatic cell ATP releasing agent was added to each well before shaking for 1 min and transfer of 10 µl of lysate to a 96-well plate and performance of a BCA assay according to the manufacturer’s instructions. Protein content per well was used to normalize OCR."}, "[3]": {"system": "androgen receptor", "set-up": "method as in Shet et al., 1997", "details": "metabolite compared with parent compound; ref Shet et al., 1997; cited from earlier work"}}, "data": [{"smiles": "CC(C)C(=O)Nc1ccc([N+](=O)[O-])c(C(F)(F)F)c1", "note": "[Flutamide]", "values": [{"measurement": "cases of hospitalization or death (idiosyncratic DILI) in treated patients", "setting": "[1]", "value": 0.03, "unit": "%"}, {"measurement": "basal respiration", "setting": "[2]", "value": "significant decrease"}, {"measurement": "maximal respiration", "setting": "[2]", "value": "significant decrease"}, {"measurement": "OCR upon compound injection, mitochondrial stress test", "setting": "[2]; up to 500 µM", "value": "immediate concentration-dependent reduction in OCR"}, {"measurement": "ATP-linked OCR as a percentage of maximal respiration", "setting": "[2]; up to 500 µM", "value": "significant decrease"}, {"measurement": "proton leak as a percentage of maximal respiration", "setting": "[2]; up to 500 µM", "value": "significant increase"}, {"measurement": "spare respiratory capacity as a percentage of maximal respiration", "setting": "[2]; up to 500 µM", "value": "significant decrease"}]}, {"smiles": "CC(C)(O)C(=O)Nc1ccc([N+](=O)[O-])c(C(F)(F)F)c1", "note": "[2-hydroxyflutamide]", "values": [{"measurement": "basal respiration", "setting": "[2]", "value": "significant decrease"}, {"measurement": "maximal respiration", "setting": "[2]", "value": "significant decrease"}, {"measurement": "ATP-linked OCR as a percentage of maximal respiration", "setting": "[2]; up to 500 µM", "value": "significant decrease"}, {"measurement": "proton leak as a percentage of maximal respiration", "setting": "[2]; up to 500 µM", "value": "significant increase"}, {"measurement": "spare respiratory capacity as a percentage of maximal respiration", "setting": "[2]; up to 500 µM", "value": "significant decrease"}, {"measurement": "androgen receptor binding affinity", "setting": "[3]", "value": "higher androgen receptor binding affinity than its parent compound"}]}]}
